The values below come from patent US20240368133A1, “Compounds for the Treatment of Pain, in Particular, Neuropathic Pain, and/or Other Diseases or Disorders that are Associated with AT2R and/or AT2R Mediated Signaling” (Confo Therapeutics N.V., priority 2021, published 2024).

In one experiment the target is human AT1R (Homo sapiens (Human), UniProt P30556). In words: Counterscreen radioligand binding assay, displacement of 125I-[Sar1, Ile8]-Angiotensin II, hAT1R WT. The conditions noted are these: for inhibition at 1 µM / inhibition at 10 µM: 125I-[Sar1, Ile8]-Ang II, semi-quantitative score; for inhibition at 1 µM: compound at 1 μM, read-out: % Displaced radioligand at 1 μM; for inhibition at 10 µM: compound at 10 μM, read-out: % Displaced radioligand at 10 μM; for IC50: HEK-293 cell membranes, read-out: Binding affinity On hAT1R IC50. The method, boiled down:
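Membranes from HEK-293 cells expressing human AT1R were incubated for one hour at 25° C, pH 7.4, with 0.05 nM radiolabelled [Sar1, Ile8]-Ang II and test ligand. Bound radioactivity was collected on PEI-soaked filters, with 10 μM unlabelled [Sar1]-Ang II defining non-specific binding. Results are percent displacement at 1 μM and […], or IC50 from eight-point duplicate curves.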
For orientation: A counterscreen serves to expose hits that act by an unwanted route or on another target.

The target in a further experiment is human AT2R fused to Cb23 (Homo sapiens, UniProt P50052). In words: Radioligand binding assay, displacement of 125I-[Sar1, Ile8]-Angiotensin II, hAT2R Cb23. Conditions: displacement of 125I-[Sar1, Ile8]-Angiotensin II, human AT2R fused to Cb23, HEK-293 cell membrane preparations; read-out: Binding affinity on hAT2R_Cb23 IC50. The method in brief: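 Membranes from HEK-293 cells expressing human AT2R fused to Cb23 were incubated with 0.05 nM 125I-[Sar1, Ile8]-Angiotensin II in 100 μL buffer (50 mM Tris, 5 mM MgCl2, 1 mM EDTA, 0.1% BSA, pH 7.4) for one hour at 25° C. Ligands were tested as eight-point dose-response curves in duplicate, with C21 and Angiotensin II as references.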
A general note: In a radioligand displacement assay an active substance lowers the binding of a labelled ligand.

Sequence of human AT1R (P30556 whole entry): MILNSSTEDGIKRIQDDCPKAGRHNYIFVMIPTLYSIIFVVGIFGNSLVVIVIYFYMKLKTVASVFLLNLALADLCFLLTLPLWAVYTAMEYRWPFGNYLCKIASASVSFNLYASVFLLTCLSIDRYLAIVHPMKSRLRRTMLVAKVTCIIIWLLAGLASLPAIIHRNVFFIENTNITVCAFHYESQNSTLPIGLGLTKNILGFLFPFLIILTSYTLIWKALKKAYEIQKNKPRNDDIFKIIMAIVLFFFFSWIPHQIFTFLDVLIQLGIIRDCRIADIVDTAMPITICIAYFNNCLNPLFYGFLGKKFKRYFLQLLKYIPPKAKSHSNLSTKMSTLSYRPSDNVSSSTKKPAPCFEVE
Sequence of human AT2R fused to Cb23 (P50052 whole entry, looked up, the tested form may be a part): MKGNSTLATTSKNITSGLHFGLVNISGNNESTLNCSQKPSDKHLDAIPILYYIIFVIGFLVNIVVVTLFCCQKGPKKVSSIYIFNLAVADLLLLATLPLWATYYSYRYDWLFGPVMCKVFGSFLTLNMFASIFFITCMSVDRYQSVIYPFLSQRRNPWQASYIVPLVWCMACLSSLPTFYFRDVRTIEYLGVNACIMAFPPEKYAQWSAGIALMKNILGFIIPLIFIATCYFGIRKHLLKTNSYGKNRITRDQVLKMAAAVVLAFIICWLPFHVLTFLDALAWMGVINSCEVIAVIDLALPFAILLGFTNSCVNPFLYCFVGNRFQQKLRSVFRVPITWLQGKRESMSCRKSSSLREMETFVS

As to `CCS(=O)(=O)NC(=O)c1ccc(OC(C)C)cc1N1CCN(Cc2nc3ccccc3s2)CC1` [Compound A-40, 2-[4-(1,3-benzothiazol-2-ylmethyl)piperazin-1-yl]-N-ethylsulfonyl-4-isopropoxy-benzamide], at human AT1R, the inhibition at 1 µM was below 30%; the inhibition at 10 µM was below 30%; the IC50 (as a rule, the concentration at which inhibition is half-maximal) was found to be 36.6 µM. Moreover, at human AT2R fused to Cb23, the IC50 is 5.87 µM.
Consider `CC(C)Cc1cc(F)c(-c2nn[nH]n2)c(N2CCN(Cc3ncccc3F)CC2)c1` [Compound A-196, 1-[3-fluoro-5-isobutyl-2-(2H-tetrazol-5-yl)phen-yl]-4-[(3-fluoro-2-pyridyl)methyl]-piperazine], for which, on human AT1R, the inhibition at 1 µM is below 30% and the inhibition at 10 µM was below 30%. In addition, the half-maximal inhibitory concentration (IC50) at human AT2R fused to Cb23 is 0.631 µM.
For the compound `Cc1ccc2nc(CN3CCN(c4cc(CC(C)C)ccc4-c4nn[nH]n4)CC3)cc(=O)n2c1` [Compound A-70, 2-[[4-[5-isobutyl-2-(2H-tetrazol-5-yl)-phenyl]piperazin-1-yl]methyl]-7-methyl-pyrido[1,2-a]pyrimidin-4-one], on human AT1R, the inhibition at 1 µM was below 30%, the inhibition at 10 µM was below 30% and the half-inhibitory concentration (IC50) was found to be 61.2 µM. Also, at human AT2R fused to Cb23, the IC50 is 1.8 µM.
As to `COc1ccnc(CN2CCN(c3cc(CC(C)C)cc(F)c3-c3nn[nH]n3)CC2)c1C` [Compound A-208, 1-[3-fluoro-5-isobutyl-2-(2H-tetrazol-5-yl)phen-yl]-4-[(4-methoxy-3-methyl-2-pyrid-yl)methyl]piper-azine], at human AT1R, the inhibition at 1 µM is below 30% and the inhibition at 10 µM was below 30%. Further, the IC50 at human AT2R fused to Cb23 was 1.92 µM.
As to `Cc1ccc(CN2CCN(c3cc(CC(C)C)cc(F)c3-c3nn[nH]n3)CC2)nc1` [Compound A-201, 1-[3-fluoro-5-isobutyl-2-(2H-tetrazol-5-yl)phenyl]-4-[(5-methyl-2-pyridyl)methyl]piperazine], on human AT1R, the inhibition at 1 µM was below 30% and the inhibition at 10 µM is below 30%. For the same compound, at human AT2R fused to Cb23, the half-inhibitory concentration (IC50) amounted to 0.65 µM.
For `COc1ccnc(CN2CCN(c3cc(CC(C)C)cc(F)c3-c3nn[nH]n3)CC2)c1` [Compound A-199, 1-[3-fluoro-5-isobutyl-2-(2H-tetrazol-5-yl)phen-yl]-4-[(4-methoxy-2-pyridyl)methyl]-piperazine], at human AT1R, the inhibition at 1 µM was below 30% and the inhibition at 10 µM is below 30%. The IC50 on human AT2R fused to Cb23 worked out at 0.176 µM.
Regarding `CCc1cc(C2CC2)cc(N2CCN(Cc3nc4ccccc4s3)CC2)c1-c1nn[nH]n1` [Compound A-128, 2-[[4-[5-cycloprop-yl-3-ethyl-2-(2H-tetrazol-5-yl)phen-yl]piperazin-1-yl]-methyl]-1,3-benzo-thiazole], at human AT1R, the inhibition at 1 µM was 30 to 50%, the inhibition at 10 µM is above 50% and the IC50 was 18.2 µM. Also, the IC50 at human AT2R fused to Cb23 stood at 2.19 µM.
Regarding `CC(C)Cc1cc(F)c(-c2nn[nH]n2)c(N2CCN(C(=O)c3ccccn3)CC2)c1` [Compound A-215, [4-[3-fluoro-5-isobutyl-2-(2H-tetrazol-5-yl)phen-yl]piperazin-1-yl]-(2-pyridyl)meth-anone], on human AT1R, the inhibition at 1 µM is below 30% and the inhibition at 10 µM was below 30%. For the same compound, at human AT2R fused to Cb23, the IC50 was found to be 0.3 µM.
With `CCOc1ccc(-c2nn[nH]n2)c(N2CCN(Cc3nc4ccccc4n3C)CC2)c1` [Compound A-23, 2-[[4-[5-ethoxy-2-(2H-tetrazol-5-yl)-phenyl]piperazin-1-yl]methyl]-1-meth-yl-benzimidazole], on human AT1R, the inhibition at 1 µM is below 30% and the inhibition at 10 µM was below 30%. In addition, the IC50 at human AT2R fused to Cb23 was determined as 2.37 µM.
For the compound `CCCN(C(=O)c1cccs1)c1ccc2nc(CC)n(CC3CCN(c4ccccc4-c4nn[nH]n4)CC3)c(=O)c2c1` [Compound A-243, N-[2-ethyl-4-oxo-3-[[1-[2-(2H-tetrazol-5-yl)phen-yl]-4-piperidyl]-methyl]quinazolin-6-yl]-N-propyl-thiophene-2-carbox-amide], on human AT1R, the inhibition at 1 µM is below 30%, the inhibition at 10 µM was above 50% and the IC50 was 11.5 µM. Moreover, on human AT2R fused to Cb23, the concentration for half-maximal inhibition (IC50) is 0.159 µM.
In the case of `Cc1cnc(CN2C(C)CN(c3cc(CC(C)C)cc(F)c3-c3nn[nH]n3)CC2C)s1` (stereo not shown) [Compound A-224, 2-[[4-[3-fluoro-5-isobutyl-2-(2H-tetrazol-5-yl)phen-yl]-2,6-dimethyl-piperazin-1-yl]-methyl]-5-methyl-thiazole], on human AT1R, the inhibition at 1 µM was below 30% and the inhibition at 10 µM was below 30%. The IC50 at human AT2R fused to Cb23 amounted to 0.0922 µM.
Consider `CC(C)Cc1cc(F)c(-c2nn[nH]n2)c(N2CCN(Cc3cccnn3)C(C)(C)C2)c1` [Compound A-182, 3-[[4-[3-fluoro-5-isobutyl-2-(2H-tetrazol-5-yl)phenyl]-2,2-dimethyl-piperazin-1-yl]methyl]pyridazine], for which, at human AT1R, the inhibition at 1 µM is below 30% and the inhibition at 10 µM is below 30%. The half-inhibitory concentration (IC50) on human AT2R fused to Cb23 amounted to 0.0186 µM.
Turning to `CC(C)Cc1ccc(-c2nn[nH]n2)c(N2CCN(Cc3cncn3C)CC2)c1` [Compound A-105, 1-[5-isobutyl-2-(2H-tetrazol-5-yl)phenyl]-4-[(3-methylimidazol-4-yl)methyl]piperazine], at human AT1R, the inhibition at 1 µM was below 30% and the inhibition at 10 µM was below 30%. Moreover, the IC50 at human AT2R fused to Cb23 turned out to be 2 µM.
As for `Cc1nc(CN2CCN(c3cc(CC(C)C)ccc3-c3nn[nH]n3)CC2)no1` [Compound A-86, 3-[[4-[5-isobutyl-2-(2H-tetrazol-5-yl)phenyl]piperazin-1-yl]methyl]-5-methyl-1,2,4-oxadiazole], at human AT1R, the inhibition at 1 µM is below 30% and the inhibition at 10 µM was below 30%. Further, the IC50 at human AT2R fused to Cb23 is 24.9 µM.
For the compound `CC(C)Cc1cc(F)c(-c2nn[nH]n2)c(N2CCN(Cc3ccc(C#N)cn3)CC2)c1` [Compound A-209, 6-[[4-[3-fluoro-5-isobutyl-2-(2H-tetrazol-5-yl)phen-yl]piperazin-1-yl]-methyl]pyridine-3-carbonitrile], on human AT1R, the inhibition at 1 µM was 30 to 50%, the inhibition at 10 µM is above 50% and the half-inhibitory concentration (IC50) turned out to be 6.74 µM. Moreover, the half-inhibitory concentration (IC50) on human AT2R fused to Cb23 amounted to 3.68 µM.
`CC(C)Cc1ccc(-c2nn[nH]n2)c(N2CCN(Cc3cc4ccccc4n(C)c3=O)CC2)c1` [Compound A-77, 3-[[4-[5-isobutyl-2-(2H-tetrazol-5-yl)-phenyl]piperazin-1-yl]methyl]-1-methyl-quinolin-2-one]: at human AT1R, the inhibition at 1 µM is below 30%, the inhibition at 10 µM fell in the range of 30 to 50% and the half-inhibitory concentration (IC50) came out at 13.5 µM. Moreover, the IC50 at human AT2R fused to Cb23 is 2.91 µM.
Turning to `CC(C)Cc1cc(F)c(-c2nn[nH]n2)c(N2CCN(C(=O)c3ccccn3)[C@@H](C)C2)c1` [Compound A-216, [(2S)-4-[3-fluoro-5-isobutyl-2-(2H-tetrazol-5-yl)phen-yl]-2-methyl-piperazin-1-yl]-(2-pyridyl)methanone], on human AT1R, the inhibition at 1 µM was below 30% and the inhibition at 10 µM was below 30%. Further, at human AT2R fused to Cb23, the IC50 worked out at 0.247 µM.
Consider `c1ccc2sc(CN3CCN(c4cc(N5CCCCC5)ccc4-c4nn[nH]n4)CC3)nc2c1` [Compound A-65, 2-((4-(5-(piperidin-1-yl)-2-(2H-tetrazol-5-yl)phenyl)piperazin-1-yl)methyl) benzo[d]thiazole], for which, on human AT1R, the inhibition at 1 µM was below 30%, the inhibition at 10 µM was below 30% and the half-maximal inhibitory concentration (IC50) is 60.8 µM. In addition, the IC50 at human AT2R fused to Cb23 is 1.85 µM.
As for `c1ccc2sc(CN3CCN(c4cc(C5CC5)cc(C5CC5)c4-c4nn[nH]n4)CC3)nc2c1` [Compound A-129, 2-[[4-[3,5-dicyclo-propyl-2-(2H-tetrazol-5-yl)phen-yl]piperazin-1-yl]-methyl]-1,3-benzo-thiazole], on human AT1R, the inhibition at 1 µM was below 30% and the inhibition at 10 µM was below 30%. The IC50 on human AT2R fused to Cb23 came to 0.158 µM.
Consider `CC(C)Cc1cc(F)c(-c2nn[nH]n2)c(N2CCN(Cc3ncccc3Cl)CC2)c1` [Compound A-193, 1-[(3-chloro-2-pyridyl)methyl]-4-[3-fluoro-5-isobutyl-2-(2H-tetrazol-5-yl)phenyl]piperazine], for which, on human AT1R, the inhibition at 1 µM was below 30% and the inhibition at 10 µM is below 30%. On human AT2R fused to Cb23, the IC50 was determined as 0.389 µM.
Turning to `Cc1cc(CC(C)C)cc(N2CCN(Cc3nc4ccccc4s3)CC2)c1-c1nn[nH]n1` [Compound A-135], on human AT1R, the inhibition at 1 µM was below 30% and the inhibition at 10 µM is below 30%. Moreover, the IC50 at human AT2R fused to Cb23 amounted to 0.022 µM.
For `CC(C)Oc1cc(C2CC2)c(-c2nn[nH]n2)c(N2CCN(Cc3cccnn3)CC2)c1` [Compound A-161, 3-[[4-[3-cycloprop-yl-5-isopropoxy-2-(2H-tetrazol-5-yl)-phenyl]piperazin-1-yl]methyl]pyrid-azine], at human AT1R, the inhibition at 1 µM was below 30% and the inhibition at 10 µM is below 30%. Moreover, the IC50 at human AT2R fused to Cb23 is 1.46 µM.
As for `Cc1cnc(C(C)N2CCN(c3cc(CC(C)C)cc(F)c3-c3nn[nH]n3)C[C@@H]2C)s1` (stereo partly drawn) [Compound A-226, 2-[1-[(2S)-4-[3-fluoro-5-isobutyl-2-(2H-tetrazol-5-yl)phenyl]-2-methyl-piperazin-1-yl]ethyl]-5-methyl-thiazole], on human AT1R, the inhibition at 1 µM is below 30% and the inhibition at 10 µM is below 30%. At human AT2R fused to Cb23, the IC50 is 0.0372 µM.
